Source: ChEMBL document CHEMBL6115030, “Systematic All-Hydrocarbon Stapling Analysis for Cecropin A Generates a Potent and Stable Antimicrobial Peptide” (J Med Chem, 2025)
Converted amounts (≈) assume the structure as drawn. Numbered stars: 1 amine (or outer) side, 2 acyl side, 3 side chain; on linkers, the order of the positions; unused ones are H or OH. Bridge positions count the residues as written; N and C are the ends. Square brackets hold non-standard residues; d marks the D form. Peptide text beside a SMILES is read from it. ξ: configuration not given here. ξαMeNle(6-ylidene) = CC(CCCC=[*:3])(N[*:1])C(=O)[*:2]; S5 = C=CCCC[C@](C)(N)C(=O)O

How the values were obtained:
[1] = tested on: Staphylococcus aureus; experiment: Antibacterial activity against Staphylococcus aureus ATCC 25923 assessed as inhibition of bacterial growth measured after 24 hrs by broth microdilution method; assay type: functional
[2] = tested on: Klebsiella pneumoniae; experiment: Antibacterial activity against Carbapenem-resistant Klebsiella pneumoniae assessed as inhibition of bacterial growth measured after 24 hrs by broth microdilution method; assay type: functional
[3] = tested on: Pseudomonas aeruginosa; experiment: Antibacterial activity against Pseudomonas aeruginosa PAO1 assessed as inhibition of bacterial growth measured after 24 hrs by broth microdilution method; assay type: functional
[4] = tested on: Acinetobacter baumannii; experiment: Antibacterial activity against Pandrug-resistant Acinetobacter baumannii assessed as inhibition of bacterial growth measured after 24 hrs by broth microdilution method; assay type: functional
[5] = tested on: Salmonella typhimurium; experiment: Antibacterial activity against Salmonella typhimurium assessed as inhibition of bacterial growth measured after 24 hrs by broth microdilution method; assay type: functional, Salmonella enterica subsp. enterica serovar Typhimurium; conditions: Salmonella enterica
[6] = tested on: Pseudomonas aeruginosa; experiment: Antibacterial activity against Pandrug-resistant Pseudomonas aeruginosa assessed as inhibition of bacterial growth measured after 24 hrs by broth microdilution method; assay type: functional
[7] = tested on: Shigella flexneri; experiment: Antibacterial activity against Shigella flexneri 301 assessed as inhibition of bacterial growth measured after 24 hrs by broth microdilution method; assay type: functional
[8] = tested on: Pseudomonas aeruginosa; experiment: Antibacterial activity against Carbapenem-resistant Pseudomonas aeruginosa assessed as inhibition of bacterial growth measured after 24 hrs by broth microdilution method; assay type: functional
[9] = tested on: Klebsiella pneumoniae; experiment: Antibacterial activity against Klebsiella pneumoniae ATCC 13883 assessed as inhibition of bacterial growth measured after 24 hrs by broth microdilution method; assay type: functional
[10] = Hemolytic activity in human RBC assessed as hemolysis incubated for 1 hr by microplate reader; assay type: toxicity, cell-based, Erythrocyte; conditions: erythrocyte, 1 h

Structure (SMILES)	MIC [1]	MIC [2]	MIC [3]	MIC [4]	MIC [5]	MIC [6]	MIC [7]	MIC [8]	MIC [9]	Activity [10]
CC[C@H](C)[C@H](NC(=O)CNC(=O)[C@H](CC(=O)O)NC(=O)[C@H](CCCNC(=N)N)NC(=O)[C@@H](NC(=O)[C@H](CC(N)=O)NC(=O)[C@H](CCC(N)=O)NC(=O)CNC(=O)[C@@H](NC(=O)[C@H](CCCCN)NC(=O)[C@H](CCC(=O)O)NC(=O)[C@@H](NC(=O)[C@H](CCCCN)NC(=O)[C@H](CCCCN)NC(=O)[C@H](Cc1ccccc1)NC(=O)[C@H](CC(C)C)NC(=O)[C@H](CCCCN)NC(=O)[C@H](Cc1c[nH]c2ccccc12)NC(=O)[C@H](CCCCN)NC(C)=O)[C@@H](C)CC)C(C)C)[C@@H](C)CC)C(=O)N[C@H](C(=O)N[C@@H](CCCCN)C(=O)N[C@@H](C)C(=O)NCC(=O)N1CCC[C@H]1C(=O)N[C@@H](C)C(=O)N[C@H](C(=O)N[C@@H](C)C(=O)N[C@H](C(=O)N[C@H](C(=O)NCC(=O)N[C@@H](CCC(N)=O)C(=O)N[C@@]1(C)CCC/C=C/CCC[C@@](C)(C(=O)N[C@@H](CCCCN)C(N)=O)NC(=O)[C@H]([C@@H](C)CC)NC(=O)[C@H](CCC(N)=O)NC(=O)[C@H]([C@@H](C)O)NC1=O)C(C)C)C(C)C)C(C)C)[C@@H](C)CC (Ac-KWKLFKKIEKVGQNIRDGIIKAGPAVAVVGQ[S5]TQI[S5]K-NH2; staple (E) 32-36)	1.56 µM (≈ 6.48 µg/mL)	3.13 µM (≈ 13 µg/mL)	6.25 µM (≈ 26 µg/mL)	< 0.78 µM	3.13 µM (≈ 13 µg/mL)	25 µM (≈ 104 µg/mL)	< 0.78 µM	> 100 µM	3.13 µM (≈ 13 µg/mL)	
CC[C@H](C)[C@H](NC(=O)CNC(=O)[C@H](CC(=O)O)NC(=O)[C@H](CCCNC(=N)N)NC(=O)[C@@H](NC(=O)[C@H](CC(N)=O)NC(=O)[C@H](CCC(N)=O)NC(=O)CNC(=O)[C@@H](NC(=O)[C@H](CCCCN)NC(=O)[C@H](CCC(=O)O)NC(=O)[C@@H](NC(=O)[C@H](CCCCN)NC(=O)[C@H](CCCCN)NC(=O)[C@H](Cc1ccccc1)NC(=O)[C@H](CC(C)C)NC(=O)[C@H](CCCCN)NC(=O)[C@H](Cc1c[nH]c2ccccc12)NC(=O)[C@H](CCCCN)NC(C)=O)[C@@H](C)CC)C(C)C)[C@@H](C)CC)C(=O)N[C@H](C(=O)N[C@@H](CCCCN)C(=O)N[C@@H](C)C(=O)NCC(=O)N1CCC[C@H]1C(=O)N[C@@H](C)C(=O)N[C@H](C(=O)N[C@@H](C)C(=O)N[C@H](C(=O)N[C@H](C(=O)NCC(=O)N[C@@]1(C)CCC/C=C\CCC[C@@](C)(C(=O)N[C@@H](C)C(=O)N[C@@H](CCCCN)C(N)=O)NC(=O)[C@H](CCC(N)=O)NC(=O)[C@H]([C@@H](C)O)NC(=O)[C@H](C)NC1=O)C(C)C)C(C)C)C(C)C)[C@@H](C)CC (Ac-KWKLFKKIEKVGQNIRDGIIKAGPAVAVVG[S5]ATQ[S5]AK-NH2; staple (Z) 31-35)	3.13 µM (≈ 12.7 µg/mL)		12.5 µM (≈ 50.7 µg/mL)						12.5 µM (≈ 50.7 µg/mL)	Non-toxic
CC[C@H](C)[C@H](NC(=O)CNC(=O)[C@H](CC(=O)O)NC(=O)[C@H](CCCNC(=N)N)NC(=O)[C@@H](NC(=O)[C@H](CC(N)=O)NC(=O)[C@H](CCC(N)=O)NC(=O)CNC(=O)[C@@H](NC(=O)[C@H](CCCCN)NC(=O)[C@H](CCC(=O)O)NC(=O)[C@@H](NC(=O)[C@H](CCCCN)NC(=O)[C@H](CCCCN)NC(=O)[C@H](Cc1ccccc1)NC(=O)[C@H](CC(C)C)NC(=O)[C@H](CCCCN)NC(=O)[C@H](Cc1c[nH]c2ccccc12)NC(=O)[C@H](CCCCN)NC(C)=O)[C@@H](C)CC)C(C)C)[C@@H](C)CC)C(=O)N[C@H](C(=O)N[C@@H](CCCCN)C(=O)N[C@@H](C)C(=O)NCC(=O)N1CCC[C@H]1C(=O)N[C@@H](C)C(=O)N[C@H](C(=O)N[C@@H](C)C(=O)N[C@H](C(=O)N[C@H](C(=O)NC1(C)CCC/C=C\CCC[C@@](C)(C(=O)N[C@H](C(=O)N[C@@H](C)C(=O)N[C@@H](CCCCN)C(N)=O)[C@@H](C)CC)NC(=O)[C@H]([C@@H](C)O)NC(=O)[C@H](C)NC(=O)[C@H](CCC(N)=O)NC1=O)C(C)C)C(C)C)C(C)C)[C@@H](C)CC (stereo not given in full) (Ac-KWKLFKKIEKVGQNIRDGIIKAGPAVAVV[ξαMeNle(6-ylidene)]QAT[S5]IAK-NH2; staple (Z) 30-34)	3.13 µM (≈ 12.9 µg/mL)		6.25 µM (≈ 25.7 µg/mL)						6.25 µM (≈ 25.7 µg/mL)	Non-toxic
CC[C@H](C)[C@H](NC(=O)CNC(=O)[C@H](CC(=O)O)NC(=O)[C@H](CCCNC(=N)N)NC(=O)[C@@H](NC(=O)[C@H](CC(N)=O)NC(=O)[C@H](CCC(N)=O)NC(=O)CNC(=O)[C@@H](NC(=O)[C@H](CCCCN)NC(=O)[C@H](CCC(=O)O)NC(=O)[C@@H](NC(=O)[C@H](CCCCN)NC(=O)[C@H](CCCCN)NC(=O)[C@H](Cc1ccccc1)NC(=O)[C@H](CC(C)C)NC(=O)[C@H](CCCCN)NC(=O)[C@H](Cc1c[nH]c2ccccc12)NC(=O)[C@H](CCCCN)NC(C)=O)[C@@H](C)CC)C(C)C)[C@@H](C)CC)C(=O)N[C@H](C(=O)N[C@@H](CCCCN)C(=O)N[C@@H](C)C(=O)NCC(=O)N1CCC[C@H]1C(=O)N[C@@H](C)C(=O)N[C@H](C(=O)N[C@@H](C)C(=O)N[C@H](C(=O)N[C@@]1(C)CCC/C=C\CCC[C@@](C)(C(=O)N[C@@H](CCC(N)=O)C(=O)N[C@H](C(=O)N[C@@H](C)C(=O)N[C@@H](CCCCN)C(N)=O)[C@@H](C)CC)NC(=O)[C@H](C)NC(=O)[C@H](CCC(N)=O)NC(=O)CNC1=O)C(C)C)C(C)C)[C@@H](C)CC (Ac-KWKLFKKIEKVGQNIRDGIIKAGPAVAV[S5]GQA[S5]QIAK-NH2; staple (Z) 29-33)	1.56 µM (≈ 6.39 µg/mL)	3.13 µM (≈ 12.8 µg/mL)	6.25 µM (≈ 25.6 µg/mL)	< 0.78 µM	1.5 µM (≈ 6.14 µg/mL)	25 µM (≈ 102 µg/mL)	< 0.78 µM	> 100 µM	1.56 µM (≈ 6.39 µg/mL)	
CC[C@H](C)[C@H](NC(=O)CNC(=O)[C@H](CC(=O)O)NC(=O)[C@H](CCCNC(=N)N)NC(=O)[C@@H](NC(=O)[C@H](CC(N)=O)NC(=O)[C@H](CCC(N)=O)NC(=O)CNC(=O)[C@@H](NC(=O)[C@H](CCCCN)NC(=O)[C@H](CCC(=O)O)NC(=O)[C@@H](NC(=O)[C@]1(C)CCC/C=C\CCC[C@](C)(NC(=O)[C@H](Cc2c[nH]c3ccccc23)NC(=O)[C@H](CCCCN)NC(C)=O)C(=O)N[C@@H](CC(C)C)C(=O)N[C@@H](Cc2ccccc2)C(=O)N[C@@H](CCCCN)C(=O)N1)[C@@H](C)CC)C(C)C)[C@@H](C)CC)C(=O)N[C@H](C(=O)N[C@@H](CCCCN)C(=O)N[C@@H](C)C(=O)NCC(=O)N1CCC[C@H]1C(=O)N[C@@H](C)C(=O)N[C@H](C(=O)N[C@@H](C)C(=O)N[C@H](C(=O)N[C@H](C(=O)NCC(=O)N[C@@H](CCC(N)=O)C(=O)N[C@@H](C)C(=O)N[C@H](C(=O)N[C@@H](CCC(N)=O)C(=O)N[C@H](C(=O)N[C@@H](C)C(=O)N[C@@H](CCCCN)C(N)=O)[C@@H](C)CC)[C@@H](C)O)C(C)C)C(C)C)C(C)C)[C@@H](C)CC (Ac-KW[S5]LFK[S5]IEKVGQNIRDGIIKAGPAVAVVGQATQIAK-NH2; staple (Z) 3-7)	> 100 µM		> 100 µM						> 100 µM	
CC[C@H](C)[C@H](NC(=O)CNC(=O)[C@H](CC(=O)O)NC(=O)[C@H](CCCNC(=N)N)NC(=O)[C@@H](NC(=O)[C@H](CC(N)=O)NC(=O)[C@H](CCC(N)=O)NC(=O)CNC(=O)[C@@H](NC(=O)[C@H](CCCCN)NC(=O)[C@H](CCC(=O)O)NC(=O)[C@@H](NC(=O)[C@H](CCCCN)NC(=O)[C@]1(C)CCC/C=C\CCC[C@](C)(NC(=O)[C@H](CCCCN)NC(C)=O)C(=O)N[C@@H](CCCCN)C(=O)N[C@@H](CC(C)C)C(=O)N[C@@H](Cc2ccccc2)C(=O)N1)[C@@H](C)CC)C(C)C)[C@@H](C)CC)C(=O)N[C@H](C(=O)N[C@@H](CCCCN)C(=O)N[C@@H](C)C(=O)NCC(=O)N1CCC[C@H]1C(=O)N[C@@H](C)C(=O)N[C@H](C(=O)N[C@@H](C)C(=O)N[C@H](C(=O)N[C@H](C(=O)NCC(=O)N[C@@H](CCC(N)=O)C(=O)N[C@@H](C)C(=O)N[C@H](C(=O)N[C@@H](CCC(N)=O)C(=O)N[C@H](C(=O)N[C@@H](C)C(=O)N[C@@H](CCCCN)C(N)=O)[C@@H](C)CC)[C@@H](C)O)C(C)C)C(C)C)C(C)C)[C@@H](C)CC (Ac-K[S5]KLF[S5]KIEKVGQNIRDGIIKAGPAVAVVGQATQIAK-NH2; staple (Z) 2-6)	> 100 µM		> 100 µM						> 100 µM	
CC[C@H](C)[C@H](NC(=O)CNC(=O)[C@H](CC(=O)O)NC(=O)[C@H](CCCNC(=N)N)NC(=O)[C@@H](NC(=O)[C@H](CC(N)=O)NC(=O)[C@H](CCC(N)=O)NC(=O)CNC(=O)[C@@H](NC(=O)[C@H](CCCCN)NC(=O)[C@H](CCC(=O)O)NC(=O)[C@@H](NC(=O)[C@H](CCCCN)NC(=O)[C@H](CCCCN)NC(=O)[C@]1(C)CCC/C=C\CCC[C@](C)(NC(C)=O)C(=O)N[C@@H](Cc2c[nH]c3ccccc23)C(=O)N[C@@H](CCCCN)C(=O)N[C@@H](CC(C)C)C(=O)N1)[C@@H](C)CC)C(C)C)[C@@H](C)CC)C(=O)N[C@H](C(=O)N[C@@H](CCCCN)C(=O)N[C@@H](C)C(=O)NCC(=O)N1CCC[C@H]1C(=O)N[C@@H](C)C(=O)N[C@H](C(=O)N[C@@H](C)C(=O)N[C@H](C(=O)N[C@H](C(=O)NCC(=O)N[C@@H](CCC(N)=O)C(=O)N[C@@H](C)C(=O)N[C@H](C(=O)N[C@@H](CCC(N)=O)C(=O)N[C@H](C(=O)N[C@@H](C)C(=O)N[C@@H](CCCCN)C(N)=O)[C@@H](C)CC)[C@@H](C)O)C(C)C)C(C)C)C(C)C)[C@@H](C)CC (Ac-[S5]WKL[S5]KKIEKVGQNIRDGIIKAGPAVAVVGQATQIAK-NH2; staple (Z) 1-5)	> 100 µM		> 100 µM						12.5 µM (≈ 50.3 µg/mL)	
